Values quoted from earlier work, collected in patent publication US9301957B2, “Immediate release 4-methyl-3-4[[4-(3-pyridinyl)-2-pyrimidinyl]amino]-N-[5-(4-methyl-1H-imidazol-1-YL)-3-(trifluoromethyl)phenyl] benzamide formulation” (Novartis AG, priority 2011, dated 2016).

Legend:
[1] = nilotinib and its salts
[2] = unit dosage given shortly after food, compared to a fasted state

water solubility [1]: poorly water soluble | systemic exposure, as reflected by AUC and Cmax [2]: increases markedly
Compound: Cc1cn(-c2cc(NC(=O)c3ccc(C)c(Nc4nccc(-c5cccnc5)n4)c3)cc(C(F)(F)F)c2)cn1 [nilotinib, 4-Methyl-3-[[4-(3-pyridinyl)-2-pyrimidinyl]amino]-N-[5-(4-methyl-1H-imidazol-1-yl)-3-(trifluoromethyl)phenyl]benzamide]
